Measured values: PubChem BioAssay AID1963429 (Molecular Pharmacology Branch, DTP, NCI, 2024)

Test system: 126254-015-R-J1-PDC complex spheroid growth, % test/control
Test: Anticancer human tumor 126254-015-R-J1-PDC patient-derived soft tissue sarcoma cell line growth inhibition [Asc]
Conditions: for IC50: curve of first compound; for viability, T/C: stronger effect = lower value
Experimental: Multicellular complex tumor spheroid response to apoptosis pathway targeting inhibitors Alrizomadlin, Pelcitoclax, and Dasminapant in combination with a variety of drugs and investigational agents in selected tumor cell lines
The MDM2 inhibitor alrizomadlin, the Bcl-2/Bcl-xL inhibitor pelcitoclax, and the IAPs inhibitor dasminapant were evaluated both individually and in combination with standard of care and investigational anticancer small molecules within a complex spheroid model of solid tumors. . Complex spheroids include a stromal component modeled by human endothelial cells (HUVEC) and fibroblasts modeled by human mesenchymal stem cells (MSCs). The concentration ranges selected for each drug and investigational agent were based upon clinically achievable concentrations if the clinical Cmax of the agent was known.
Compounds. The drugs and investigational agents: alrizomadlin (APG-115; NSC831270), pelcitoclax (APG-1252; NSC835773), dasminapant (APG-1387;NSC834197), TAK-243 (NSC785004), copanlisib (NSC809693), olaparib (NSC753686), talazoparib (NSC767125), cobimetinib (NSC 768068), eltanexor (KPT-8602, NSC 794443), abemaciclib (NSC 768073), sotorasib (NSC818433), adagrasib (NSC 831453), MRTX-1133 (NSC 836407), Iadademestat (ORY1001, NSC 806812), and RMC-4630 (NSC839698), were obtained from the NCI Developmental Therapeutics Program Chemical Repository. The FDA-approved anticancer drug set is available from the Developmental Therapeutics Program at https://dtp.cancer.gov/organization/dscb/obtaining/available plates.htm. […] The stock solutions were prepared in dimethyl sulfoxide (DMSO, Sigma-Aldrich, St. Louis, MO, cat. D2650) at 800-fold the tested concentration and stored at -70 degrees C prior to their use. All drugs and investigational agents were tested over a range starting from a high concentration at or near the clinical Cmax and decreasing in half-log increments. If the clinical Cmax for an agent had not been determined, the highest concentration tested was 10 microM.
The patient-derived cancer (PDC) cell lines include five colon adenocarcinomas: 186277-243-T-J2-PDC, 616215-338-R-J1-PDC, 439559-082-T-J2-PDC, 463943-066-T-J2-PDC, and 519858-162-T-J1-PDC; three pancreatic carcinomas: 323965-272-R-J2-PDC, 521955-158-R6-J3-PDC, and 521955-158-R2-J5-PDC; two uterine sarcomas: 327498-152-R-J2-PDC and 993429-296-R-J1-PDC; two rhabdomyosarcomas: 755483-174-R-J1-PDC and 772245-204-R-J1-PDC; two soft tissue sarcomas: 126254-015-R-J1-PDC and 494315-158-R-J1-PDC; two malignant fibrous histiocytomas: 317291-083-R-J1-PDC and 596521-263-R-J1-PDC; two breast carcinomas: 171881-019-R-J1-PDC and 885512-296-R-J2-PDC; and one ovarian carcinoma: 6556581-035-R-J-PDC were obtained from the NCI PDMR, (https://pdmr.cancer.gov). The established cell lines HSSY-2 synovial sarcoma (RRID:CVCL 8719), SYO-1 synovial sarcoma (RRID:CVCL_7146), MPNST malignant peripheral neural sheath tumor were obtained from the Sloan Kettering Institute. The following established cell lines were purchased from the American Type Culture Collection (ATCC, Manassas, VA), Sor the received from the NCI repository:, PANC-1 pancreatic carcinoma (CRL-1469, RRID:CVCL_0480), OVCAR-5 ovarian carcinoma (RRID:CVCL_1628), OVCAR-8 ovarian carcinoma (RRID:CVCL_1629), , MCF-7 breast carcinoma (CRL-12584, RRID:CVCL_0031), MDA-MB-231 breast carcinoma (CRL-12532, RRID:CVCL_0062), NCI-H1876 small cell lung carcinoma (CRL-5902, RRID:CVCL_1503), NCI-H510A small cell lung carcinoma (HTB-184, RRID:CVCL_1565), NCI-H1417 (CRL-5869, RRID:CVCL_1469), and NCI-H196 small cell lung carcinoma (CRL-5823, RRID:CVCL_1509). Dr. Peter Houghton (Greehey Children's Cancer Research Institute, University of Texas Health Science Center, San Antonio, TX) provided Rh-18 rhabdomyosarcoma (RRID:CVCL_1659). Pooled donor human umbilical vein endothelial cells (HUVEC, Lonza, cat. CC-2519) and human mesenchymal stem cells (hMSC, Lonza, cat. PT-2501) were purchased from Lonza (Walkersville, MD).
Cell Culture. […]

[1] = second compound 0.03 µM, first compound 0.0316 µM
[2] = second compound 0.03 µM, first compound 0.1 µM
[3] = second compound 0.03 µM, first compound 0.316 µM
[4] = second compound 0.03 µM, first compound 1 µM
[5] = second compound 0.03 µM, first compound 3.16 µM
[6] = second compound 0.03 µM, first compound 10 µM
[7] = second compound 0.0949 µM, first compound 0.0316 µM
[8] = second compound 0.0949 µM, first compound 0.1 µM
[9] = second compound 0.0949 µM, first compound 0.316 µM
[10] = second compound 0.0949 µM, first compound 1 µM
[11] = second compound 0.0949 µM, first compound 3.16 µM
[12] = second compound 0.0949 µM, first compound 10 µM
[13] = second compound 0.3 µM, first compound 0.0316 µM
[14] = second compound 0.3 µM, first compound 0.1 µM
[15] = second compound 0.3 µM, first compound 0.316 µM
[16] = second compound 0.3 µM, first compound 1 µM
[17] = second compound 0.3 µM, first compound 3.16 µM
[18] = second compound 0.3 µM, first compound 10 µM
[19] = second compound 0.949 µM, first compound 0.0316 µM
[20] = second compound 0.949 µM, first compound 0.1 µM
[21] = second compound 0.949 µM, first compound 0.316 µM
[22] = second compound 0.949 µM, first compound 1 µM
[23] = second compound 0.949 µM, first compound 3.16 µM
[24] = second compound 0.949 µM, first compound 10 µM
[25] = second compound 3 µM, first compound 0.0316 µM
[26] = second compound 3 µM, first compound 0.1 µM
[27] = second compound 3 µM, first compound 0.316 µM
[28] = second compound 3 µM, first compound 1 µM
[29] = second compound 3 µM, first compound 3.16 µM
[30] = second compound 3 µM, first compound 10 µM
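Also: spheroids exposed to compound for seven days.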
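For viability, T/C in this document: 100% = DMSO vehicle control wells.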

## C=C(F)C(=O)N1CCN(c2nc(OCC3CCCN3C)nc3c2CCN(c2cccc4cccc(Cl)c24)C3)CC1CC#N (stereo not given) + CCN1C(C(=O)NC23CCC(C(=O)O)(CC2)CC3)C(c2cccc(Cl)c2F)C2(C(=O)Nc3cc(Cl)ccc32)C12CCCCC2
Second compound 0.03 µM
  IC50: 2.43 µM
Second compound 0.0949 µM
  IC50: 2.64 µM
Second compound 0.3 µM
  IC50: 2.73 µM
Second compound 0.949 µM
  IC50: 2.74 µM
Second compound 3 µM
  IC50: 2.92 µM
[1]
  viability, T/C: 105%
[2]
  viability, T/C: 103%
[3]
  viability, T/C: 102%
[4]
  viability, T/C: 95.9%
[5]
  viability, T/C: 36.5%
[6]
  viability, T/C: 0.16%
[7]
  viability, T/C: 101%
[8]
  viability, T/C: 104%
[9]
  viability, T/C: 94.9%
[10]
  viability, T/C: 93.8%
[11]
  viability, T/C: 41.9%
[12]
  viability, T/C: 0.16%
[13]
  viability, T/C: 101%
[14]
  viability, T/C: 105%
[15]
  viability, T/C: 97.4%
[16]
  viability, T/C: 93.9%
[17]
  viability, T/C: 43.6%
[18]
  viability, T/C: 0.16%
[19]
  viability, T/C: 107%
[20]
  viability, T/C: 123%
[21]
  viability, T/C: 100%
[22]
  viability, T/C: 101%
[23]
  viability, T/C: 42.7%
[24]
  viability, T/C: 0.17%
[25]
  viability, T/C: 104%
[26]
  viability, T/C: 114%
[27]
  viability, T/C: 103%
[28]
  viability, T/C: 98.9%
[29]
  viability, T/C: 46.3%
[30]
  viability, T/C: 0.21%

## Cn1ncnc1[C@H]1c2n[nH]c(=O)c3cc(F)cc(c23)N[C@@H]1c1ccc(F)cc1 + CCN1C(C(=O)NC23CCC(C(=O)O)(CC2)CC3)C(c2cccc(Cl)c2F)C2(C(=O)Nc3cc(Cl)ccc32)C12CCCCC2
Second compound 0.03 µM
  IC50: > 0.1 µM
Second compound 0.0949 µM
  IC50: > 0.1 µM
Second compound 0.3 µM
  IC50: > 0.1 µM
Second compound 0.949 µM
  IC50: > 0.1 µM
Second compound 3 µM
  IC50: > 0.1 µM
Second compound 0.03 µM, first compound 0.000316 µM
  viability, T/C: 88.6%
Second compound 0.03 µM, first compound 0.001 µM
  viability, T/C: 108%
Second compound 0.03 µM, first compound 0.00316 µM
  viability, T/C: 88%
Second compound 0.03 µM, first compound 0.01 µM
  viability, T/C: 96.5%
[1]
  viability, T/C: 83.9%
[2]
  viability, T/C: 75.4%
Second compound 0.0949 µM, first compound 0.000316 µM
  viability, T/C: 101%
Second compound 0.0949 µM, first compound 0.001 µM
  viability, T/C: 102%
Second compound 0.0949 µM, first compound 0.00316 µM
  viability, T/C: 88.4%
Second compound 0.0949 µM, first compound 0.01 µM
  viability, T/C: 78.2%
[7]
  viability, T/C: 84.7%
[8]
  viability, T/C: 68%
Second compound 0.3 µM, first compound 0.000316 µM
  viability, T/C: 97%
Second compound 0.3 µM, first compound 0.001 µM
  viability, T/C: 111%
Second compound 0.3 µM, first compound 0.00316 µM
  viability, T/C: 104%
Second compound 0.3 µM, first compound 0.01 µM
  viability, T/C: 81.7%
[13]
  viability, T/C: 80.7%
[14]
  viability, T/C: 75.2%
Second compound 0.949 µM, first compound 0.000316 µM
  viability, T/C: 95.3%
Second compound 0.949 µM, first compound 0.001 µM
  viability, T/C: 90.9%
Second compound 0.949 µM, first compound 0.00316 µM
  viability, T/C: 95.6%
Second compound 0.949 µM, first compound 0.01 µM
  viability, T/C: 86%
[19]
  viability, T/C: 95.8%
[20]
  viability, T/C: 90.5%
Second compound 3 µM, first compound 0.000316 µM
  viability, T/C: 96.3%
Second compound 3 µM, first compound 0.001 µM
  viability, T/C: 103%
Second compound 3 µM, first compound 0.00316 µM
  viability, T/C: 89.9%
Second compound 3 µM, first compound 0.01 µM
  viability, T/C: 84.8%
[25]
  viability, T/C: 82%
[26]
  viability, T/C: 81.6%

## C#Cc1c(F)ccc2cc(O)cc(-c3ncc4c(N5CC6CCC(C5)N6)nc(OCC56CCCN5CC(F)C6)nc4c3F)c12 (stereo not given) + CCN1C(C(=O)NC23CCC(C(=O)O)(CC2)CC3)C(c2cccc(Cl)c2F)C2(C(=O)Nc3cc(Cl)ccc32)C12CCCCC2
Second compound 0.03 µM
  IC50: > 10 µM
Second compound 0.0949 µM
  IC50: > 10 µM
Second compound 0.3 µM
  IC50: > 10 µM
Second compound 0.949 µM
  IC50: > 10 µM
Second compound 3 µM
  IC50: > 10 µM
[1]
  viability, T/C: 96.1%
[2]
  viability, T/C: 102%
[3]
  viability, T/C: 100%
[4]
  viability, T/C: 96.2%
[5]
  viability, T/C: 95.5%
[6]
  viability, T/C: 79.4%
[7]
  viability, T/C: 101%
[8]
  viability, T/C: 95.3%
[9]
  viability, T/C: 96.2%
[10]
  viability, T/C: 84.8%
[11]
  viability, T/C: 87.3%
[12]
  viability, T/C: 69.9%
[13]
  viability, T/C: 99%
[14]
  viability, T/C: 104%
[15]
  viability, T/C: 97.7%
[16]
  viability, T/C: 101%
[17]
  viability, T/C: 99.2%
[18]
  viability, T/C: 88%
[19]
  viability, T/C: 92%
[20]
  viability, T/C: 103%
[21]
  viability, T/C: 94.9%
[22]
  viability, T/C: 88.7%
[23]
  viability, T/C: 97.3%
[24]
  viability, T/C: 93%
[25]
  viability, T/C: 103%
[26]
  viability, T/C: 94%
[27]
  viability, T/C: 86.1%
[28]
  viability, T/C: 98.6%
[29]
  viability, T/C: 86.2%
[30]
  viability, T/C: 78.5%
